The source of these data is PubChem BioAssay (NCI).

Among the test systems are NCI-H23 lung; HOP-62 NSCLC; SK-MEL-5 melanoma; K-562 leukemia; OVCAR-8 ovarian; RPMI-8226 leukemia; ACHN renal; UACC-62 melanoma; HT29 colon; U251 CNS.
What all share (experiment): NCI-60 cell line screen, 48 h

Each structure is given as a SMILES string. Values joined by “and” are separate entries in the source; they are usually repeats but may differ in a detail not shown here. Identical values can stand only once.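 Following 48 hours of exposure in 96-well plates, responses at five concentrations were used to interpolate endpoints linearly. At the GI50, growth is halved. TGI: total growth inhibition.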

`Cc1cc(N(CCC#N)CCC#N)ccc1/C=C(\NC(=O)/C=C/c1ccccc1)C(=O)NN`: the TGI is above 100 µM in the assay on NCI-H23 lung; above 90.3 µM in the assay with HOP-62 NSCLC; above 100 µM with SK-MEL-5 melanoma; above 100 µM in the assay on K-562 leukemia; above 100 µM in the assay with OVCAR-8 ovarian; above 100 µM in the assay with RPMI-8226 leukemia. Moreover, the TGI was above 100 µM with ACHN renal, above 100 µM in the assay on UACC-62 melanoma, above 100 µM with HT29 colon and above 78 µM in the assay with U251 CNS.
For `O=S(=O)(CCCl)c1ccc(Cl)cc1`, the GI50 in the assay with NCI-H23 lung was 4.79 µM; in the assay on HOP-62 NSCLC, 15.7 µM; in the assay on SK-MEL-5 melanoma it was 6.27 µM; with K-562 leukemia, 3.98 µM; in the assay on OVCAR-8 ovarian, 3.14 µM; in the assay on RPMI-8226 leukemia it was 2.8 µM. Besides, the GI50 is 3.52 µM with ACHN renal, 5.63 µM in the assay on UACC-62 melanoma, 3.23 µM in the assay with HT29 colon and 10.1 µM in the assay with U251 CNS. The TGI in the assay with NCI-H23 lung was 20.6 µM; with HOP-62 NSCLC, 30.6 µM; in the assay with SK-MEL-5 melanoma it was 20.4 µM; with K-562 leukemia, above 100 µM; with OVCAR-8 ovarian, 12.9 µM; with RPMI-8226 leukemia it was 12 µM. Further, the TGI with ACHN renal stood at 13.1 µM; with UACC-62 melanoma, 19.4 µM; with HT29 colon it was 13.8 µM; in the assay with U251 CNS, 27.5 µM.
In the case of `CCCCN(CC)CC(C(C)=O)c1c(O)c2ccccc2oc1=O` (stereo not drawn), the TGI in the assay with NCI-H23 lung, in the assay on HOP-62 NSCLC, with SK-MEL-5 melanoma, in the assay with K-562 leukemia, in the assay with OVCAR-8 ovarian and in the assay with RPMI-8226 leukemia was above 100 µM each time. Also, the TGI in the assay on ACHN renal, in the assay with UACC-62 melanoma, in the assay on HT29 colon and with U251 CNS was above 100 µM in each case.
Turning to `CSC1=Nc2ccccc2N=C(c2ccc(Cl)cc2)C1`, the TGI is above 100 µM with NCI-H23 lung; above 100 µM in the assay with HOP-62 NSCLC; 51.3 µM in the assay on SK-MEL-5 melanoma; above 100 µM in the assay on K-562 leukemia; above 100 µM with OVCAR-8 ovarian; above 100 µM with RPMI-8226 leukemia. Also, the TGI in the assay with ACHN renal was above 100 µM; with UACC-62 melanoma it was above 100 µM; in the assay on HT29 colon, 90 µM; in the assay with U251 CNS it was above 100 µM.
Turning to `O=C(Nc1ccc(Cl)c(Cl)c1)NS(=O)(=O)c1cnccc1Oc1ccc(F)cc1`, the GI50 with NCI-H23 lung was 3.37 µM; in the assay on HOP-62 NSCLC, 6.14 µM; with SK-MEL-5 melanoma, 3.63 µM; in the assay with K-562 leukemia, 3.27 µM; with OVCAR-8 ovarian, 4.82 µM; in the assay on RPMI-8226 leukemia, 2.01 µM. Moreover, the GI50 with ACHN renal was 3.22 µM; in the assay with UACC-62 melanoma, 4.16 µM; with HT29 colon it was 3.63 µM; in the assay with U251 CNS it was 3.42 µM. For the same compound, the TGI in the assay with NCI-H23 lung is 24.5 µM; in the assay on HOP-62 NSCLC, 51.2 µM; in the assay on SK-MEL-5 melanoma, 13.5 µM; in the assay on K-562 leukemia, above 100 µM; with OVCAR-8 ovarian, above 100 µM; with RPMI-8226 leukemia it was 5.36 µM. Also, the TGI was above 100 µM in the assay with ACHN renal, above 100 µM in the assay with UACC-62 melanoma, above 100 µM in the assay with HT29 colon and 37.2 µM in the assay on U251 CNS.
`O=C(O)[C@@H](Cc1ccc2ccccc2c1)NC(=O)n1c2ccccc2c2ccccc21`: the GI50 in the assay on NCI-H23 lung was 3.72 µM; in the assay with HOP-62 NSCLC, 3.21 µM; in the assay on SK-MEL-5 melanoma, 2.55 µM; with K-562 leukemia, 1.41 µM; in the assay with OVCAR-8 ovarian it was 4.16 µM; in the assay on RPMI-8226 leukemia, 3.83 µM. In addition, the GI50 with ACHN renal is 4.83 µM; with UACC-62 melanoma, 0.435 µM; in the assay on HT29 colon, 3.08 µM; in the assay with U251 CNS it was 2.89 µM. In addition, the TGI in the assay on NCI-H23 lung is 26.7 µM; in the assay on HOP-62 NSCLC it was 15.3 µM; in the assay with SK-MEL-5 melanoma, 7.27 µM; in the assay on K-562 leukemia it was above 100 µM; in the assay on OVCAR-8 ovarian, above 100 µM; in the assay on RPMI-8226 leukemia, 31.7 µM. For the same compound, the TGI with ACHN renal is 93.6 µM; in the assay with UACC-62 melanoma, 16.1 µM; in the assay with HT29 colon, 8.33 µM; in the assay on U251 CNS, 21.2 µM.
Take `CC(=O)OCC1OC(N2C(=O)C(=O)c3ccccc32)C(OC(C)=O)C(OC(C)=O)C1OC(C)=O` (stereo not drawn): the TGI in the assay with NCI-H23 lung, in the assay on HOP-62 NSCLC, in the assay on SK-MEL-5 melanoma, in the assay with K-562 leukemia, in the assay on OVCAR-8 ovarian and in the assay with RPMI-8226 leukemia was above 100 µM throughout. Moreover, the TGI in the assay with ACHN renal, with UACC-62 melanoma, in the assay with HT29 colon and in the assay with U251 CNS was above 100 µM each time.
In the case of `COc1ccc2c(c1)/C(=C/c1cc(OC)c(OC)c(OC)c1)C(=O)N2`, the GI50 is 0.613 µM in the assay on NCI-H23 lung; 0.137 µM in the assay on HOP-62 NSCLC; 0.155 µM with SK-MEL-5 melanoma; below 0.0327 µM with K-562 leukemia; 1.28 µM in the assay on OVCAR-8 ovarian; 0.275 µM in the assay with RPMI-8226 leukemia. In addition, the GI50 in the assay with ACHN renal is 4.19 µM; in the assay on UACC-62 melanoma, 0.37 µM; in the assay on HT29 colon, 0.116 µM; with U251 CNS it was 0.407 µM. In addition, the TGI was above 63.2 µM in the assay with NCI-H23 lung; above 47.5 µM with HOP-62 NSCLC; above 36.3 µM in the assay on K-562 leukemia; above 100 µM in the assay on OVCAR-8 ovarian; 1.18 µM in the assay with RPMI-8226 leukemia; above 100 µM in the assay on ACHN renal. The TGI is above 100 µM in the assay on UACC-62 melanoma, 21.1 µM in the assay with HT29 colon and 16.7 µM in the assay with U251 CNS.
In the case of `c1c[nH]c(CN2CCOCC2)n1`, the TGI in the assay with NCI-H23 lung, with HOP-62 NSCLC, in the assay on SK-MEL-5 melanoma, in the assay on K-562 leukemia, in the assay with OVCAR-8 ovarian and in the assay with RPMI-8226 leukemia was above 100 µM throughout. In addition, the TGI with ACHN renal, in the assay on UACC-62 melanoma, in the assay on HT29 colon and in the assay with U251 CNS was above 100 µM in each case.
As to `COc1cc2c(cc1OC)C(C(=O)c1cccc(OC)c1OC)C(=O)N(C)CC2` (stereo not drawn), the TGI in the assay with NCI-H23 lung, in the assay on HOP-62 NSCLC, with SK-MEL-5 melanoma, in the assay with K-562 leukemia, in the assay on OVCAR-8 ovarian and in the assay on RPMI-8226 leukemia was above 100 µM in each case. Further, the TGI with ACHN renal, in the assay on UACC-62 melanoma, in the assay with HT29 colon and in the assay on U251 CNS was above 100 µM throughout.
With `Oc1ccccc1-c1nn(CNc2ccccc2Cl)c(=S)o1`, the GI50 was above 100 µM in the assay with NCI-H23 lung; above 100 µM in the assay with HOP-62 NSCLC; above 100 µM with SK-MEL-5 melanoma; above 100 µM in the assay on K-562 leukemia; above 100 µM with OVCAR-8 ovarian; 20.2 µM with RPMI-8226 leukemia. The GI50 was 16.8 µM in the assay on ACHN renal, 71.7 µM in the assay with UACC-62 melanoma, 21 µM in the assay on HT29 colon and 31.4 µM in the assay on U251 CNS. For the same compound, the TGI in the assay with NCI-H23 lung is above 100 µM; in the assay on HOP-62 NSCLC, above 100 µM; in the assay with SK-MEL-5 melanoma, above 100 µM; in the assay with K-562 leukemia, above 100 µM; with OVCAR-8 ovarian, above 100 µM; in the assay with RPMI-8226 leukemia it was 59.6 µM. Further, the TGI is 38.5 µM in the assay on ACHN renal, above 100 µM with UACC-62 melanoma, 63.8 µM in the assay with HT29 colon and above 100 µM with U251 CNS.
`O=C(O)[C@H](c1ccccc1)[C@@H](C(=O)O)c1ccccc1`: the TGI in the assay with NCI-H23 lung, in the assay on HOP-62 NSCLC, in the assay on SK-MEL-5 melanoma, with K-562 leukemia, in the assay with OVCAR-8 ovarian and in the assay with RPMI-8226 leukemia was above 100 µM throughout. In addition, the TGI in the assay with ACHN renal, with UACC-62 melanoma, in the assay on HT29 colon and with U251 CNS was above 100 µM each time.
In the case of `CCC1=CC2CN(C1)Cc1c([nH]c3ccccc13)[C@@](C(=O)OC)(c1cc3c(cc1OC)N(C)[C@H]1[C@@](O)(C(=O)OC)[C@H](OC(C)=O)[C@]4(CC)C=CCN5CC[C@]31[C@@H]54)C2` (stereo partly drawn), the GI50 is 0.0176 µM and 0.0134 µM in the assay with NCI-H23 lung; 0.0135 µM in the assay on HOP-62 NSCLC; 0.00873 µM with SK-MEL-5 melanoma; below 0.005 µM in the assay with K-562 leukemia; 0.0201 µM and 0.0306 µM in the assay on OVCAR-8 ovarian; 0.00931 µM and 0.0415 µM in the assay on RPMI-8226 leukemia. The GI50 with ACHN renal was 0.407 µM and 1.27 µM; in the assay on UACC-62 melanoma it was 0.00589 µM; in the assay with HT29 colon, below 0.005 µM; in the assay with U251 CNS it was below 0.005 µM. Moreover, the TGI with NCI-H23 lung is 50 µM and > 100 µM; with HOP-62 NSCLC it was 43.8 µM; in the assay on SK-MEL-5 melanoma it was 0.501 µM and 0.208 µM; in the assay with K-562 leukemia, 16.6 µM and 15.2 µM; in the assay on OVCAR-8 ovarian, 50 µM and > 100 µM; in the assay on ACHN renal, 50 µM and > 100 µM. Further, the TGI was 50 µM and > 100 µM with UACC-62 melanoma; 6 µM and 20.9 µM in the assay on HT29 colon; 6.71 µM and 21 µM in the assay on U251 CNS.
On to `O=C1CCCCN1CCCCC#Cc1cccc(C#Cc2cccnc2)c1`, for which the GI50 with NCI-H23 lung is 17.1 µM; in the assay with HOP-62 NSCLC it was 15.2 µM; with SK-MEL-5 melanoma it was 14.3 µM; in the assay on K-562 leukemia, 14.7 µM; with OVCAR-8 ovarian, 21.6 µM; with RPMI-8226 leukemia, 4.64 µM. The GI50 with ACHN renal is 9.64 µM; in the assay with UACC-62 melanoma, 4.82 µM; in the assay on HT29 colon, 11.9 µM; with U251 CNS it was 7.05 µM. For the same compound, the TGI with NCI-H23 lung was 37.7 µM; in the assay on HOP-62 NSCLC, 31.4 µM; in the assay on SK-MEL-5 melanoma, 36.3 µM; with K-562 leukemia it was above 100 µM; with OVCAR-8 ovarian, 67.9 µM; in the assay on RPMI-8226 leukemia it was 28.7 µM. Moreover, the TGI in the assay with ACHN renal stood at 21.7 µM; in the assay on UACC-62 melanoma it was 16.9 µM; in the assay on HT29 colon, 40 µM; with U251 CNS, 22 µM.
